Reference: BindingDB's records for doi:10.7270/Q2J96B77 (D3R/Abbott, 2020)
pIC50: −log10 of the molar value.

target: Cathepsin S (Homo sapiens, UniProt P25774); test: D3R2020
Sequence (P25774 whole entry): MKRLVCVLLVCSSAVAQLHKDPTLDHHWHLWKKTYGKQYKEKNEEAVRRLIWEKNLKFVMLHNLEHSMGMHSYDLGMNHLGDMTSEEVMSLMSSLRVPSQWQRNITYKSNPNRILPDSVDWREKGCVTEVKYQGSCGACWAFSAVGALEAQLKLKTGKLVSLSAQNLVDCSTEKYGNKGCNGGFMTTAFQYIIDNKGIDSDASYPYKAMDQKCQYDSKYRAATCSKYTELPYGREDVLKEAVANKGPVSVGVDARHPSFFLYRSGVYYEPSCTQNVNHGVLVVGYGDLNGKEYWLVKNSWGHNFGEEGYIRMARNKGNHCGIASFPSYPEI

SMILES	pIC50
COc1ccccc1C1CCN(C[C@H](O)Cn2nc(-c3ccc(C(F)(F)F)c(SCCN4CCCCC4)c3)c3c2CCNC3)CC1 [CatS_5]	6.70
CC(=O)N1CCc2c(c(-c3ccc(C(F)(F)F)c(SCC(=O)N4CCCC4)c3)nn2C[C@H](O)CN2CCC(C(C)(C)O)CC2)C1 [CatS_11]	6.80
CC1CCN(CCSc2cc(-c3nn(C[C@@H](O)CN4CCC(N5C[C@@H](O)CC5=O)CC4)c4c3CN(S(C)(=O)=O)CC4)ccc2C(F)(F)F)CC1 [CatS_13]	7.24
CC(C)=CC(=O)NCc1cc(-c2nn(CCCN(C)C)c3c2CN(C(=O)CC2CCNCC2)CC3)ccc1C(F)(F)F [CatS_16]	6.59
CS(=O)(=O)N1CCc2c(c(-c3ccc(Cl)c(C#Cc4ccc(CNCc5ccc(Cl)cc5)cc4)c3)nn2CCCN2CCN(C3CC3)CC2)C1 [CatS_17]	7.19
CC(C)=CC(=O)NCc1cc(-c2nn(CCCN3CCOCC3)c3c2CN(C(=O)CC2CCN(C(=O)OC(C)(C)C)CC2)CC3)ccc1C(F)(F)F [CatS_18]	6.77
O=C(CO)N1CCc2c(c(-c3ccc(Cl)c(C#Cc4ccc(CNCc5ccc(Cl)cc5)cc4)c3)nn2CCCN2CCSCC2)C1 [CatS_40]	7.02
CC(=O)NC1CCN(CCCn2nc(-c3ccc(Cl)c(C#Cc4ccc5c(c4)CNCC5)c3)c3c2CCN(S(C)(=O)=O)C3)CC1 [CatS_50]	7.43
CS(=O)(=O)N1CCc2c(c(-c3ccc(Cl)c(C#Cc4ccc(CNCC(F)(F)F)cc4)c3)nn2CCCN2CCC(N3CCCC3=O)CC2)C1 [CatS_56]	7.02
CS(=O)(=O)N1CCc2c(c(-c3ccc(Cl)c(C#Cc4ccc(C=O)cc4)c3)nn2CCCN2CCOCC2)C1 [CatS_64]	6.96
COC(=O)[C@@H]1Cc2ccc(C#Cc3cc(-c4nn(CCCN5CCOCC5)c5c4CN(S(C)(=O)=O)CC5)ccc3Cl)cc2CN1 [CatS_71]	7.19
CS(=O)(=O)N1CCc2c(c(-c3ccc(Cl)c(C#Cc4ccc(CN[C@H](CO)c5ccccc5)cc4)c3)nn2CCCN2CCN(c3ccccn3)CC2)C1 [CatS_75]	7.60
CN(Cc1ccc(Cl)cc1)Cc1ccc(C#Cc2cc(-c3nn(CCCN4CCN(c5ccccc5)CC4)c4c3CN(S(C)(=O)=O)CC4)ccc2Cl)cc1 [CatS_76]	7.14
CS(=O)(=O)N1CCc2c(c(-c3ccc(Cl)c(C#Cc4cccc(CNCc5ccc(Cl)cc5)c4)c3)nn2CCCN2CCN(c3ccccc3)CC2)C1 [CatS_78]	7.19
NC(=O)N1CCc2c(c(-c3ccc(Cl)c(C#Cc4ccc(CN[C@@H]5CCCc6ccccc65)cc4)c3)nn2CCCN2CCOCC2)C1 [CatS_80]	7.01
CCNCc1cc(C#Cc2cc(-c3nn(CCCN4CCCCC4)c4c3CN(C(=O)C(N)=O)CC4)ccc2Cl)ccc1Cl [CatS_82]	7.82
NC(=O)N1CCc2c(c(-c3ccc(Cl)c(C#Cc4ccc(Cl)c(CN5CCOCC5)c4)c3)nn2CCCN2CCCCC2)C1 [CatS_84]	7.46
NC(=O)C(=O)N1CCc2c(c(-c3ccc(Cl)c(C#Cc4ccc(Cl)c(CN[C@@H](CO)c5ccccc5)c4)c3)nn2CCCN2CCSCC2)C1 [CatS_88]	7.60
NC(=O)C(=O)N1CCc2c(c(-c3ccc(Cl)c(C#Cc4ccc(Cl)c(C(=O)N[C@@H](CO)c5ccccc5)c4)c3)nn2CCCN2CCSCC2)C1 [CatS_89]	7.60
C[C@H]1COCCN1CCCn1nc(-c2ccc(Cl)c(C#Cc3ccc(Cl)c(C(=O)NC[C@@H]4CCCN4)c3)c2)c2c1CCN(C(=O)C(N)=O)C2 [CatS_101]	7.60
C[C@H]1COCCN1CCCn1nc(-c2ccc(Cl)c(C#Cc3ccc(Cl)c(CNCc4ccccc4)c3)c2)c2c1CCN(C(=O)C(N)=O)C2 [CatS_102]	7.82
COC(=O)CNCc1cc(C#Cc2cc(-c3nn(CCCN4CCOC[C@@H]4C)c4c3CN(C(N)=O)CC4)ccc2Cl)ccc1Cl [CatS_109]	7.60
CNCCCNC(=O)c1ccc(C#Cc2cc(-c3nn(CCCN4CCOC[C@@H]4C)c4c3CN(C(=O)C(N)=O)CC4)ccc2Cl)cc1 [CatS_111]	7.46
NC(=O)N1CCc2c(c(-c3ccc(Cl)c(CCc4ccc(Cl)cc4)c3)nn2C[C@@H](O)CN2CCC(C3CCNCC3)CC2)C1 [CatS_117]	7.82
CC(C)(C)OC(=O)N1CCC(C2CCN(C[C@H](O)Cn3nc(-c4ccc(Cl)c(CCc5ccc(Cl)cc5)c4)c4c3CCN(C(N)=O)C4)CC2)CC1 [CatS_121]	7.60
CS(=O)(=O)N1CCc2c(c(-c3ccc(Cl)c(CCCN4CCOCC4)c3)nn2CCCN2CCC(N3CCCC3=O)CC2)C1 [CatS_123]	5.93
CC(=O)N1CCN(CCCn2nc(-c3ccc(C(F)(F)F)c(SCC(=O)N4CCOCC4)c3)c3c2CCN(S(C)(=O)=O)C3)CC1 [CatS_131]	6.51
CC(=O)NC1CCN(CCCn2nc(-c3ccc(C(F)(F)F)c(SCCO)c3)c3c2CCN(S(C)(=O)=O)C3)CC1 [CatS_132]	6.47

Continued, values first:

pIC50	SMILES
7.26	Cn1c(=O)n(C2CCN(CCCn3nc(-c4ccc(C(F)(F)F)cc4)c4c3CCN(C(=O)c3c[nH]cn3)C4)CC2)c2ccccc21 [CatS_3]
7.13	CC1(C)CCN(C[C@H](O)Cn2nc(-c3ccc(C(F)(F)F)c(CNCc4ccc(F)cc4)c3)c3c2CCN(S(C)(=O)=O)C3)CC1 [CatS_8]
7.52	CC(C)(C)C1CCN(CCCn2nc(-c3ccc(C(F)(F)F)c(CNCc4ccc(F)cc4)c3)c3c2CCN(S(C)(=O)=O)C3)CC1 [CatS_12]
7.82	CS(=O)(=O)N1CCc2c(c(-c3ccc(C(F)(F)F)c(CNCc4ccc(F)cc4)c3)nn2CCCN2CCC(C3CCCCC3)CC2)C1 [CatS_26]
7.74	CS(=O)(=O)N1CCc2c(c(-c3ccc(Cl)c(C#Cc4ccc(CNCc5ccc(Cl)cc5)cc4)c3)nn2CCCN2CCC(N3CCCC3=O)CC2)C1 [CatS_43]
7.46	CS(=O)(=O)N1CCc2c(c(-c3ccc(Cl)c(C#Cc4ccc(CN[C@@H]5c6ccccc6C[C@@H]5O)cc4)c3)nn2CCCN2CCN(c3ccccc3)CC2)C1 [CatS_77]
7.60	CC(C)(O)CNCc1cc(C#Cc2cc(-c3nn(CCCN4CCSCC4)c4c3CN(C(=O)C(N)=O)CC4)ccc2Cl)ccc1Cl [CatS_87]
7.46	C[C@H]1COCCN1CCCn1nc(-c2ccc(Cl)c(CCc3ccc(CNCc4ccc(Cl)cc4)cc3)c2)c2c1CCN(C(=O)C(N)=O)C2 [CatS_95]
7.12	C[C@H]1COCCN1CCCn1nc(-c2ccc(Cl)c(C#Cc3ccc(CNCc4ccc(Cl)cc4)cc3)c2)c2c1CCN(S(C)(=O)=O)C2 [CatS_98]
7.35	C[C@H]1COCCN1CCCn1nc(-c2ccc(Cl)c(C#Cc3ccc(C(=O)NCCN4CCOCC4)cc3)c2)c2c1CCN(C(=O)C(N)=O)C2 [CatS_100]
7.70	C[C@H]1COCCN1CCCn1nc(-c2ccc(Cl)c(C#Cc3ccc(Cl)c(CNCCCO)c3)c2)c2c1CCN(C(N)=O)C2 [CatS_104]
6.62	CC(C)CCNCc1cc(-c2nn(CCCN3CCC(N4CCCC4=O)CC3)c3c2CN(S(C)(=O)=O)CC3)ccc1C(F)(F)F [CatS_126]
7.07	CS(=O)(=O)N1CCc2c(c(-c3ccc(C(F)(F)F)c(SCC(=O)N4CCC[C@@H]4C(N)=O)c3)nn2CCCN2CCC(N3CCCC3=O)CC2)C1 [CatS_129]
